Experiments:
[1] = Pharmacokinetic interaction between atazanavir/r and the Compound, steady-state PK in healthy subjects (studies 1 and 2); type: in vivo, human; settings: for AUCtau % GMR (90% CI) / Cmax % GMR (90% CI) / Ctau % GMR (90% CI): coadministration:alone, 14 days
Text: In study 1, 33/61 and study 2, 19/30 subjects completed each study; discontinuations were mostly for known ATV adverse events.

[2] = Pharmacokinetic interaction between atazanavir and the Compound: EVG/ATV versus EVG/r crossover in healthy subjects; settings: for half-life: human, plasma
Procedure: This study evaluated the safety and steady-state pharmacokinetics of the co-administered Compound and ATV.
(§1) Healthy subjects received EVG/r 300/100 mg or EVG/ATV 300/400 mg in a randomized, crossover manner for 10 days each, with the last dose being coadministered with the CYP3A probe substrate midazolam (oral syrup; 5 mg) and pharmacokinetic (PK) sampling performed. […] ATV, midazolam, and ritonavir pharmacokinetics were also determined for descriptive statistics.

CYP3A = CYP3A probe substrate midazolam pharmacokinetics with EVG/ATV versus EVG/r; settings: midazolam oral syrup 5 mg with last dose; EVG/ATV vs. EVG/r
Procedure: as §1

[3] = Similar studies of the effect of five protease inhibitors on the pharmacokinetics of the Compound; type: in vivo; settings: protease inhibitors with ritonavir 100 mg QD to 200 mg BID
Procedure: These studies employed various doses of ritonavir (100 mg QD to 200 mg BID).

[4] = Study 1, the Compound 200 mg (test and reference) + ATV/r 300/100 mg QD, n=33
[5] = Study 2, the Compound test 85 mg, reference 150 mg, ATV/r 300/100 mg QD, n=20
[6] = EVG/ATV 300/400 mg vs. EVG/r 300/100 mg, 10 days each, n=14
[7] = ATV 400 mg coadministered with EVG 300 mg

Q: Which results are given for COc1cc2c(cc1Cc1cccc(Cl)c1F)c(=O)c(C(=O)O)cn2[C@H](CO)C(C)C [the Compound, 6-(3-chloro-2-fluorobenzyl)-1-[(2S)-1-hydroxy-3-methylbutan-2-yl]-7-methoxy-4-oxo-1,4-dihydroquinoline-3-carboxylic acid]?
A: systemic exposure ([1]; 85 mg of the Compound with ritonavir-boosted atazanavir versus 150 mg dose of the Compound alone): equivalent; AUCtau % GMR (90% CI) [1, 4]: 200%; Cmax % GMR (90% CI) [1, 4]: 185%; Ctau % GMR (90% CI) [1, 4]: 288%; AUCtau % GMR (90% CI) [1, 5]: 107%; Cmax % GMR (90% CI) [1, 5]: 90.9%; Ctau % GMR (90% CI) [1, 5]: 138%; exposures upon coadministration with ATV/r ([1]; coadministration with ATV/r): elevated; systemic exposure ([2]; 300 mg of the Compound with atazanavir versus 300 mg with ritonavir): equivalent; AUCtau geometric mean ratio (90% CI) [2, 6]: 107 (95.6, 119) %; Cmax geometric mean ratio (90% CI) [2, 6]: 108 (99, 119) %; Ctau geometric mean ratio (90% CI) [2, 6]: 89.9 (71.4, 113) %; adverse events ([2]; EVG/r 300/100 mg or EVG/ATV 300/400 mg, 10 days each, healthy subjects): No grade 4 AE or serious AE were observed; half-life ([2]; median T1/2, EVG/ATV 300/400 mg): 5.2 h; half-life ([2]; median T1/2, EVG/r 300/100 mg): 6.3 h

Q: With Cc1ncc2n1-c1ccc(Cl)cc1C(c1ccccc1F)=NC2 [midazolam] as the compound, how does the “AUCinf geometric mean ratio (90% CI)” value (CYP3A) read?
A: 89.5 (80.7, 99.3) %

Q: And the “Cmax geometric mean ratio (90% CI)” value (CYP3A)?
A: 98.8 (89.6, 109) %

Q: For COC(=O)N[C@H](C(=O)N[C@@H](Cc1ccccc1)[C@@H](O)CN(Cc1ccc(-c2ccccn2)cc1)NC(=O)[C@@H](NC(=O)OC)C(C)(C)C)C(C)(C)C [ATV, 1-[4-(pyridine-2-yl)-phenyl]-4(S)-2,5-bis-[N-(N-methoxycarbonyl-(L)-tert-leucyl)amino]-6-phenyl-2-axahexane, reference compound], which “effect on the pharmacokinetics of the Compound” value [3] is on record?
A: improved pharmacokinetic effect

Q: And the “AUCtau and Ctau compared with historical data” value [2, 7]?
A: lower than historical data

Q: And the “Mean (% CV) Ctau” value [2, 7]?
A: 74.5 (45.7%) ng/ml
